Test [1] has as its target memapsin 2 (Homo sapiens, UniProt P56817). In words: Inhibition of memapsin 2 beta-secretase activity toward fluorogenic substrate FS-2. Format: biochemical. The following applies: pH 4, 37° C., 20 minutes pre-incubation, fluorogenic substrate FS-2, tight-binding model; read-out: M2 Ki.
Procedure: Potency of compounds were determined by measurement of their inhibition of memapsin 2 activity toward a fluorescent substrate. […] Briefly, assays were performed at pH 4, 37° C., by pre-incubation of memapsin 2 enzyme with compound for 20 minutes. Activity measure was initiated by addition of a fluorogenic substrate FS-2 (Bachem Americas, Torrance, Calif.). Fluorescent signal increase over time was measured as a rate of hydrolysis of the peptide substrate.
Test [2] deals with T1, memapsin 2 (Cricetulus griseus, UniProt G3IAK4).
T1 construct: endogenous in cells; host or cells: Chinese hamster ovary cells over-expressing human APP695 (London + Swedish)
T1 sequence (G3IAK4 22-501): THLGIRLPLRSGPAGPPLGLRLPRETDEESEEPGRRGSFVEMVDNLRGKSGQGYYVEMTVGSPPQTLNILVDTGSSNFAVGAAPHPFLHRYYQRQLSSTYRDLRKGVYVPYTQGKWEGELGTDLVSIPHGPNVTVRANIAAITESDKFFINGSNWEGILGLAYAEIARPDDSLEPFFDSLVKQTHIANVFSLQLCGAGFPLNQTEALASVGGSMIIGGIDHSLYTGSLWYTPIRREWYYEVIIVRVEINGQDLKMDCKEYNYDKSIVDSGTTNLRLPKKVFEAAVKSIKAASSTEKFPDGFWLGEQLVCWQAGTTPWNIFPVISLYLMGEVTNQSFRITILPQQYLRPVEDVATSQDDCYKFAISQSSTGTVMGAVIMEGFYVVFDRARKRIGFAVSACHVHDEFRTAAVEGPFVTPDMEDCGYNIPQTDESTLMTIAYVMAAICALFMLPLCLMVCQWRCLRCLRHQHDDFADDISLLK
In words: Cellular Aβ IC50 determination (Aβ40 sandwich ELISA). Format: cell-based. The following applies: Chinese hamster ovary cells over-expressing human APP695 with London and Swedish mutations, 24 h. How it is done:
The potency of compounds against memapsin 2 activity was determined in a cellular assay of Aβ production. […] Chinese hamster ovary cells that over-express human APP695 with the London and Swedish mutations were seeded in multi-well plates at 10% confluency. Compounds were dissolved in DMSO to concentrations near 1 mM, and diluted into culture media to a final concentration near 4 μM (final 0.4% DMSO). Compounds were diluted serially and applied to cells in multi-well plates 48 h after seeding. Incubation was continued in 5% CO2 at 37 degrees C. for 24 h. Aliquots were removed and assayed for Aβ40 content using a sandwich ELISA (BioSource International). Amount of Aβ40 over the range of concentration of compounds, relative to control incubations, were fit to a 4-parameter IC50 model.
On the technique in general: ELISA stands for enzyme-linked immunosorbent assay.

Molecules are shown by their SMILES.

Sequence of memapsin 2 (Homo sapiens, UniProt P56817) (P56817 46-501): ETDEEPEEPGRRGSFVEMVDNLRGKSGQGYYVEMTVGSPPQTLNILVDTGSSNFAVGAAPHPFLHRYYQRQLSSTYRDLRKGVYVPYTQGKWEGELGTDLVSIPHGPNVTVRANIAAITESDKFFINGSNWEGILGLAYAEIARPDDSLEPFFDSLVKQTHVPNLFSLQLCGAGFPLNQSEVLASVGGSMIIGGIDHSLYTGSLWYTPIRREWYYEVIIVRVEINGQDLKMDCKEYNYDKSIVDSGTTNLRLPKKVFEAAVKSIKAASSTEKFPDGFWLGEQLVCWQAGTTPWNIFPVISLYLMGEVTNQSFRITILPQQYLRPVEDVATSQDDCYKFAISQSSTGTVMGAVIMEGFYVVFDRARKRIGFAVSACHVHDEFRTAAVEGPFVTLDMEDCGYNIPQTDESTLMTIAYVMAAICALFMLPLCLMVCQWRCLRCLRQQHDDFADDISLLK

One may read the Ki as a dissociation constant, usually derived from enzyme kinetics or from competition with a known ligand. As usually defined, the IC50 is the point on the concentration scale where inhibition reaches its midpoint. Low readings indicate higher potency, high ones lower potency. As for `CCC(Cn1nc(C)cc1C)C(=O)NC(CNC(=O)OC(C)(C)C)C(=O)NC(CC(C)C)C(O)CC(C)C(=O)NC(C(=O)NCc1nc(C)cs1)C(C)C` (centres unmarked) [tert-butyl 2-(2-((3,5-dimethyl-1H-pyrazol-1-yl)methyl)butanamido)-3-(5-hydroxy-2,7-dimethyl-8-(3-methyl-1-((4-methylthiazol-2-yl)methylamino)-1-oxobutan-2-ylamino)-8-oxooctan-4-ylamino)-3-oxopropylcarbamate], the Ki in test [1] is less than 0.1 µM. The molecule also gave an IC50 in test [2] of less than 6 µM.

The molecule `CCC(Cc1nc(C)cs1)C(=O)NC(CN(C)OC)C(=O)NC(CC(C)C)C(O)CC(C)C(=O)NC(C(=O)NCC(C)C)C(C)C` (centres unmarked) [4-hydroxy-N-(1-(isobutylamino)-3-methyl-1-oxobutan-2-yl)-5-(3-(methoxy(methyl)amino)-2-(2-((4-methylthiazol-2-yl)methyl)butanamido)propanamido)-2,7-dimethyloctanamide] gave an IC50 in test [2] greater than 100 µM.

`COC(=O)NCC(NC(=O)C(C)Cc1nc(C)cs1)C(=O)NC(CC(C)C)C(O)CC(C)C(=O)NC(C(=O)NCC(C)C)C(C)C` (centres unmarked) [methyl 3-(5-hydroxy-8-(1-(isobutylamino)-3-methyl-1-oxobutan-2-ylamino)-2,7-dimethyl-8-oxooctan-4-ylamino)-2-(2-methyl-3-(4-methylthiazol-2-yl)propanamido)-3-oxopropylcarbamate] gave a half-inhibitory concentration (IC50) in test [2] of less than 6 µM.

Consider `CCC(Cn1nc(C)cc1C)C(=O)NC(CNC(=O)OC(C)(C)C)C(=O)NC(CC(C)C)C(O)CC(C)C(=O)NC(C(=O)NCC(F)(F)F)C(C)C` (centres unmarked) [tert-butyl 2-(2-((3,5-dimethyl-1H-pyrazol-1-yl)methyl)butanamido)-3-(5-hydroxy-2,7-dimethyl-8-(3-methyl-1-oxo-1-(2,2,2-trifluoroethylamino)butan-2-ylamino)-8-oxooctan-4-ylamino)-3-oxopropylcarbamate], for which, in test [2], the IC50 lay in the range of 6 to 100 µM.

As to `COC(=O)NC[C@H](NC(=O)OCc1nc(C)cs1)C(=O)N[C@@H](CC(C)C)[C@@H](O)C[C@@H](C)C(=O)N[C@H](C(=O)NCC(C)C)C(C)C`, the concentration for half-maximal inhibition (IC50) in test [2] is less than 6 µM.

`Cc1csc(CC(C)C(=O)NC(CNC(=O)OC(C)(C)C)C(=O)NC(Cc2ccccc2)C(O)CC(C)C(=O)NC(C(=O)NCC(C)C)C(C)C)n1` (centres unmarked) [tert-butyl 3-(3-hydroxy-6-(1-(isobutylamino)-3-methyl-1-oxobutan-2-ylamino)-5-methyl-6-oxo-1-phenylhexan-2-ylamino)-2-(2-methyl-3-(4-methylthiazol-2-yl)propanamido)-3-oxopropylcarbamate] had an IC50 in test [2] of 6 to 100 µM.

Molecule `Cc1csc(CC(C)C(=O)NC(CNC(=O)OC(C)(C)C)C(=O)NC(CC(C)C)C(O)CC(C)C(=O)NC(C(=O)NN(C)C)C(C)C)n1` (centres unmarked) [tert-butyl 3-(8-(1-(2,2-dimethylhydrazinyl)-3-methyl-1-oxobutan-2-ylamino)-5-hydroxy-2,7-dimethyl-8-oxooctan-4-ylamino)-2-(2-methyl-3-(4-methylthiazol-2-yl)propanamido)-3-oxopropylcarbamate] showed a concentration for half-maximal inhibition (IC50) in test [2] of less than 6 µM.

With `Cc1csc(CC(C)C(=O)NC(CNS(C)(=O)=O)C(=O)NC(CC(C)C)C(O)CC(C)C(=O)NC(C(=O)NCC(C)C)C(C)C)n1` (centres unmarked) [4-hydroxy-N-(1-(isobutylamino)-3-methyl-1-oxobutan-2-yl)propanamido)-3-(methylsulfonamido)propanamido)octanamide], in test [2], the concentration for half-maximal inhibition (IC50) was less than 6 µM.

For `Cc1csc(COC(=O)N[C@@H](CNC(=O)OC(C)(C)C)C(=O)N[C@@H](CC(C)C)[C@@H](O)C[C@@H](C)C(=O)N[C@H](C(=O)NCC(C)C)C(C)C)n1`, in test [2], the IC50 is greater than 100 µM.

Turning to `CC(=O)NCC(NC(=O)C(C)Cc1nc(C)cs1)C(=O)NC(CC(C)C)C(O)CC(C)C(=O)NC(C(=O)NCC(C)C)C(C)C` (centres unmarked) [5-(3-acetamido-2-(2-methyl-3-(4-methylthiazol-2-yl)propanamido)propanamido)-4-hydroxy-N-(1-(isobutylamino)-3-methyl-1-oxobutan-2-yl)-2,7-dimethyloctanamide], the half-inhibitory concentration (IC50) in test [2] fell in the range of 6 to 100 µM.

Source of the values: patent publication US20080125467A1, “Amino-Containing Compounds Which Inhibit Memapsin 2 Beta-Secretase Activity and Methods of Use Thereof” (priority 2004, published 2008).
